Test results from patent publication US20220289787A1, “DIMER COMBINATIONS AND USES THEREOF” (Ripple Therapeutics Corporation, priority 2019, published 2022).

Assay: Drug release from heat-molded pellets of Compound 1 in PBS at 37° C. (HPLC)
Type: physicochemical
Conditions: FIG. 2
Procedure: Heat-molded pellets from Compound 1 (^˜1 mm×1 mm) were placed in 20 mL glass vials and 2 mL of the release buffer phosphate buffered saline (PBS) was added.

C[C@@H]1C[C@H]2[C@@H]3CCC4=CC(=O)C=C[C@]4(C)[C@@]3(F)[C@@H](O)C[C@]2(C)[C@@]1(O)C(=O)COC(=O)OCCOCCOCCOC(=O)OCC(=O)[C@@]1(O)[C@H](C)C[C@H]2[C@@H]3CCC4=CC(=O)C=C[C@]4(C)[C@@]3(F)[C@@H](O)C[C@@]21C [Compound 1, dexamethasone-triethylene glycol-dexamethasone]
dexamethasone release profile (cumulative drug release) (heat-molded pellets ~1 mm×1 mm): zero-order (e.g., near zero order) release
duration of zero-order release (heat-molded pellets): at least 100 days
